Reference: PubChem BioAssay AID2060330 (Molecular Pharmacology Branch, DTP, NCI, 2025)

System: LG0703-F948-PDC spheroids with HUVEC/MSC, viability
Test: Anticancer human tumor LG0703-F948-PDC patient-derived lung adenocarcinoma cell line growth inhibition [IpAb]
Details: for IC50: curve of first compound; for viability, T/C: stronger effect = lower value
Text: Combinatorial screen of targeted agents with ipatasertib and abemaciclib in multi-cell type tumor spheroids
A high-throughput screen of multi-cell type tumor spheroids was designed to identify active combinations of targeted small molecules and ipatasertib or abemaciclib. Complex spheroids include a stromal component modeled by human endothelial cells (HUVEC) and fibroblasts modeled by human mesenchymal stem cells (MSCs). The concentration ranges selected for each drug and investigational agent were based upon clinically achievable concentrations if the clinical Cmax of the agent was known.
Compounds. The drugs and investigational agents: ipatasertib (NSC767898), abemaciclib(NSC768073), selumetinib (NSC741078), trametinib (758246), adavosertib (NSC754352), everolimus (NSC733504), sapanisertib (NSC764658), vemurafenib (NSC761431), venetoclax (NSC766270), copanlisib (NSC809693), apelisib (NSC765974), palbociblib (NSC758247), vemurafenib (NSC761431), dabrafenib (NSC764134), ravoxertinib (NSC781343), BMS-387032 (NSC767048), sotorasib (NSC818433), talazoparib (NSC767125) and afursertib (NSC778305), were obtained from the National Cancer Institute (NCI) Developmental Therapeutics Program Chemical Repository. The FDA-approved anticancer drug set is available from the NCI Developmental Therapeutics Program. […] The stock solutions were prepared in dimethyl sulfoxide (DMSO, Sigma-Aldrich, St. Louis, MO, cat. D2650) at 800-fold the tested concentration and stored at -70 degrees C prior to their use. All drugs and investigational agents were tested over a range starting from a high concentration at or near the clinical Cmax and decreasing in half-log increments. If the clinical Cmax for an agent had not been determined, the highest concentration tested was 10 microM.
NCI60 Cell Culture. NCI60 cell lines were obtained from the NCI Developmental Therapeutics Program Tumor Repository. For each lot of cells, the Repository performed Applied Biosystems AmpFLSTR Identifiler testing with PCR amplification to confirm consistency with the published Identifier STR profile for each cell line. Cells were kept in continuous culture for no more than 20 passages. The optimal seeding densities for each of the cell lines at each time point assessed were determined prior to performing the concentration response studies. Briefly, the NCI60 human tumor lines were grown as monolayers in RPMI 1640 medium supplemented with 10% FBS and 2 mmol/L L-glutamine.
An additional 9 lines were from the NCI60 cell line panel including MDA-MB-231 breast carcinoma, MDA-MB-468 breast carcinoma, MCF7 breast carcinoma, Hs578T breast carcinoma, MALME-3M melanoma, SK-MEL-2 melanoma, SK-OV-3 ovarian carcinoma, DU-145 prostate carcinoma, PC-3 prostate carcinoma, all cell lines along with major genetic alterations are listed on Table 2. Pooled donor human umbilical vein endothelial cells (HUVEC, Lonza, cat. CC-2519) and human mesenchymal stem cells (hMSC, Lonza, cat. PT-2501) were purchased from Lonza (Walkersville, MD).
PDMR cell lines were grown in complete medium (DC medium): Dulbecco's modified Eagle's medium (DMEM)/F12 supplemented with 5% fetal bovine serum (FBS), 2 mM L-glutamine, 100 U/mL penicillin and 100 µg/ml streptomycin, 0.4 µg/ml hydrocortisone, 10 ng/ml epidermal growth factor (EGF) recombinant human protein, 24 µg/mL adenine, and 0.1 mg/mL primocin. During culture from frozen stock vials, PDMR cells were cultured in the same medium containing 10 µM Y-27632 (see Table 3). The PDCs were cultured in complete DMEM/F12 media without 10 microM Y-27632 dihydrochloride for at least two passages prior to the screen. The pooled donor HUVEC and hMSC were cultured in endothelial cell growth medium 2 (PromoCell, Heidelberg, Germany, cat. C-22011) and mesenchymal stem cell growth medium 2 (PromoCell, cat. C-28009), respectively. For all experiments, HUVEC and hMSC were used at passages </=5.
[…]

[1] = second compound 0.1 µM, first compound 0.0316 µM
[2] = second compound 0.1 µM, first compound 0.1 µM
[3] = second compound 0.1 µM, first compound 0.316 µM
[4] = second compound 0.1 µM, first compound 1 µM
[5] = second compound 0.1 µM, first compound 3.16 µM
[6] = second compound 0.1 µM, first compound 10 µM
[7] = second compound 0.316 µM, first compound 0.0316 µM
[8] = second compound 0.316 µM, first compound 0.1 µM
[9] = second compound 0.316 µM, first compound 0.316 µM
[10] = second compound 0.316 µM, first compound 1 µM
[11] = second compound 0.316 µM, first compound 3.16 µM
[12] = second compound 0.316 µM, first compound 10 µM
[13] = second compound 1 µM, first compound 0.0316 µM
[14] = second compound 1 µM, first compound 0.1 µM
[15] = second compound 1 µM, first compound 0.316 µM
[16] = second compound 1 µM, first compound 1 µM
[17] = second compound 1 µM, first compound 3.16 µM
[18] = second compound 1 µM, first compound 10 µM
[19] = second compound 3.16 µM, first compound 0.0316 µM
[20] = second compound 3.16 µM, first compound 0.1 µM
[21] = second compound 3.16 µM, first compound 0.316 µM
[22] = second compound 3.16 µM, first compound 1 µM
[23] = second compound 3.16 µM, first compound 3.16 µM
[24] = second compound 3.16 µM, first compound 10 µM
[25] = second compound 10 µM, first compound 0.0316 µM
[26] = second compound 10 µM, first compound 0.1 µM
[27] = second compound 10 µM, first compound 0.316 µM
[28] = second compound 10 µM, first compound 1 µM
[29] = second compound 10 µM, first compound 3.16 µM
[30] = second compound 10 µM, first compound 10 µM
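Also: spheroids exposed to compounds for seven days before readout.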
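For viability, T/C in this document: T/C percent relative to DMSO vehicle wells set as 100% viability.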

Structure (SMILES)	IC50 (second compound 0.1 µM) [nM]	IC50 (second compound 0.316 µM) [nM]	IC50 (second compound 1 µM) [nM]	IC50 (second compound 3.16 µM) [nM]	IC50 (second compound 10 µM) [nM]	viability, T/C [1] [%]	viability, T/C [2] [%]	viability, T/C [3] [%]	viability, T/C [4] [%]	viability, T/C [5] [%]	viability, T/C [6] [%]	viability, T/C [7] [%]	viability, T/C [8] [%]	viability, T/C [9] [%]	viability, T/C [13] [%]	viability, T/C [14] [%]	viability, T/C [19] [%]	viability, T/C [20] [%]	viability, T/C [25] [%]	viability, T/C [26] [%]	further results
C=CCn1c(=O)c2cnc(Nc3ccc(N4CCN(C)CC4)cc3)nc2n1-c1cccc(C(C)(C)O)n1 + CC(C)NCC(C(=O)N1CCN(c2ncnc3c2C(C)CC3O)CC1)c1ccc(Cl)cc1	704	243	< 31.6	< 31.6	< 31.6	97.8	94.6	72.4	40.5	13.2	4.37	75.6	66.5	45.6	44.7	36.7	39.3	39.6	28.6	24.1	viability, T/C [10]: 17.1%; viability, T/C [11]: 5.97%; viability, T/C [12]: 2.34%; viability, T/C [15]: 37.1%; viability, T/C [16]: 16.5%; viability, T/C [17]: 7.72%; viability, T/C [18]: 2.58%; viability, T/C [21]: 28.3%; viability, T/C [22]: 13.2%; viability, T/C [23]: 6.52%; viability, T/C [24]: 3.11%; viability, T/C [27]: 15.9%; viability, T/C [28]: 5.77%; viability, T/C [29]: 5.31%; viability, T/C [30]: 6.51%
CC(C)n1nc(-c2ccc3oc(N)nc3c2)c2c(N)ncnc21 + CC(C)NCC(C(=O)N1CCN(c2ncnc3c2C(C)CC3O)CC1)c1ccc(Cl)cc1	2.49	0.914	< 0.316	< 0.316	< 0.316	18.9	18.9	–	–	–	–	16.4	12.6	–	11.2	9.31	7.95	7.22	5.1	29.5	viability, T/C (second compound 0.1 µM, first compound 0.000316 µM): 77.5%; viability, T/C (second compound 0.1 µM, first compound 0.001 µM): 64.8%; viability, T/C (second compound 0.1 µM, first compound 0.00316 µM): 47.5%; viability, T/C (second compound 0.1 µM, first compound 0.01 µM): 25.9%; viability, T/C (second compound 0.316 µM, first compound 0.000316 µM): 65%; viability, T/C (second compound 0.316 µM, first compound 0.001 µM): 49%; viability, T/C (second compound 0.316 µM, first compound 0.00316 µM): 32%; viability, T/C (second compound 0.316 µM, first compound 0.01 µM): 21.4%; viability, T/C (second compound 1 µM, first compound 0.000316 µM): 49.1%; viability, T/C (second compound 1 µM, first compound 0.001 µM): 37%; viability, T/C (second compound 1 µM, first compound 0.00316 µM): 22.8%; viability, T/C (second compound 1 µM, first compound 0.01 µM): 14%; viability, T/C (second compound 3.16 µM, first compound 0.000316 µM): 39.7%; viability, T/C (second compound 3.16 µM, first compound 0.001 µM): 24.9%; viability, T/C (second compound 3.16 µM, first compound 0.00316 µM): 15.1%; viability, T/C (second compound 3.16 µM, first compound 0.01 µM): 8.55%; viability, T/C (second compound 10 µM, first compound 0.000316 µM): 31.7%; viability, T/C (second compound 10 µM, first compound 0.001 µM): 18.1%; viability, T/C (second compound 10 µM, first compound 0.00316 µM): 10.4%; viability, T/C (second compound 10 µM, first compound 0.01 µM): 16.2%
CC1(C)CCC(CN2CCN(c3ccc(C(=O)NS(=O)(=O)c4ccc(NCC5CCOCC5)c([N+](=O)[O-])c4)c(Oc4cnc5[nH]ccc5c4)c3)CC2)=C(c2ccc(Cl)cc2)C1 + CC(C)NCC(C(=O)N1CCN(c2ncnc3c2C(C)CC3O)CC1)c1ccc(Cl)cc1	4060	3190	< 31.6	< 31.6	< 31.6	90.8	82.1	77.8	72.8	64.2	10.8	71.2	60	67.4	49.2	43	42.1	44.4	41	43.3	viability, T/C [10]: 63%; viability, T/C [11]: 50.4%; viability, T/C [12]: 8.61%; viability, T/C [15]: 53%; viability, T/C [16]: 46.5%; viability, T/C [17]: 44.3%; viability, T/C [18]: 7.68%; viability, T/C [21]: 40.9%; viability, T/C [22]: 39.8%; viability, T/C [23]: 30.6%; viability, T/C [24]: 5.93%; viability, T/C [27]: 35.3%; viability, T/C [28]: 37.9%; viability, T/C [29]: 29.2%; viability, T/C [30]: 3.65%
CCCS(=O)(=O)Nc1ccc(F)c(C(=O)c2c[nH]c3ncc(-c4ccc(Cl)cc4)cc23)c1F + CC(C)NCC(C(=O)N1CCN(c2ncnc3c2C(C)CC3O)CC1)c1ccc(Cl)cc1	> 10000	> 10000	3780	< 31.6	< 31.6	85.5	89.6	85	91.2	86.2	67.5	69.2	71.7	68.4	54.1	49.6	41.1	42.8	35.6	39.7	viability, T/C [10]: 78.2%; viability, T/C [11]: 75%; viability, T/C [12]: 55.6%; viability, T/C [15]: 50%; viability, T/C [16]: 52.1%; viability, T/C [17]: 56.9%; viability, T/C [18]: 36.5%; viability, T/C [21]: 45%; viability, T/C [22]: 46.3%; viability, T/C [23]: 49.6%; viability, T/C [24]: 25.6%; viability, T/C [27]: 38.3%; viability, T/C [28]: 45.1%; viability, T/C [29]: 44%; viability, T/C [30]: 7.66%
